Results taken from patent publication US6238873A, “Methods of screening for agonists and antagonists of the interaction between the human KIAA0001 receptor and ligands thereof” (Smithkline Beecham Corporation, priority 1999, dated 2001).

How the values were obtained:
human KIAA0001 receptor [1] = target: T1, human KIAA0001 receptor (Homo sapiens, UniProt Q15391); test: Specificity of response: nucleotide di-phosphate sugar spotted onto agar plate infused with yeast carrying human KIAA0001 receptor and FUS1-LacZ reporter; assay type: cell-based; conditions: 10 nmoles (1 microliter of 10 mM solution) spotted onto agar plate
T1 sequence (Q15391 1-338): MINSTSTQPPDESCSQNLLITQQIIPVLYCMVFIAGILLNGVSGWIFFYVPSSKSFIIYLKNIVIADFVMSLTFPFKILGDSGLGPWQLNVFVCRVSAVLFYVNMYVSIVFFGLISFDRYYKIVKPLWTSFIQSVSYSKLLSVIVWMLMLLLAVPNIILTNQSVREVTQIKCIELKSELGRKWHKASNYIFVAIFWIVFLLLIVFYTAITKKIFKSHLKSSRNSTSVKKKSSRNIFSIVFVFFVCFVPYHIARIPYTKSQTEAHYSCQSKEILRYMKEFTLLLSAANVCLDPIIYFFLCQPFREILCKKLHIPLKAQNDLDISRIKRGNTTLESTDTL
Protocol: The specificity of this response was determined by spotting 10 nmoles (1 microliter of 10 mM solution) of each nucleotide di-phosphate sugar onto an agar plate infused with a yeast strain carrying the human KIAA0001 receptor and the FUS1-LacZ reporter, as described above.

human KIAA0001 receptor [2] = target: T1, human KIAA0001 receptor; conditions: FUS1-LacZ yeast expressing human KIAA0001 receptor

For `CC(=O)N[C@H]1[C@@H](OP(=O)(O)OP(=O)(O)OC[C@H]2O[C@@H](n3ccc(=O)[nH]c3=O)[C@H](O)[C@@H]2O)O[C@H](CO)[C@@H](O)[C@@H]1O` [UDP-N-acetyl glucosamine], which “response on agar plate (FUS1-LacZ reporter)” value (“response on agar plate” for short) (human KIAA0001 receptor [1]) is on record?
The value was “positive response”.

What about the “response determined by expression of -galactosidase” value (human KIAA0001 receptor [2]) of the same molecule?
The value was “receptor-dependentresponse”.

For `Nc1ncnc2c1ncn2[C@@H]1O[C@H](COP(=O)(O)OP(=O)(O)OC[C@H]2OC(O)[C@H](O)[C@@H]2O)[C@@H](O)[C@H]1O` (stereo partly drawn) [ADP-ribose], which “response on agar plate” value (human KIAA0001 receptor [1]) is on record?
Its value is “failed to produce a response”.

With `C[C@@H]1O[C@H](OP(=O)(O)OP(=O)(O)OC[C@H]2O[C@@H](n3cnc4c(=O)[nH]c(N)nc43)[C@H](O)[C@@H]2O)[C@@H](O)[C@H](O)[C@@H]1O` [GDP-fucose] as the molecule, how does the “response on agar plate” value (human KIAA0001 receptor [1]) read?
Its value is “failed to produce a response”.

`Nc1ccn([C@@H]2O[C@H](COP(=O)(O)OP(=O)(O)O[C@H]3O[C@H](CO)[C@@H](O)[C@H](O)[C@H]3O)[C@@H](O)[C@H]2O)c(=O)n1` [CDP-glucose] was tested. Which “response on agar plate” value (human KIAA0001 receptor [1]) did it give?
The value was “failed to produce a response”.

For `Cc1cn([C@H]2C[C@H](O)[C@@H](COP(=O)(O)OP(=O)(O)O[C@H]3O[C@H](CO)[C@@H](O)[C@H](O)[C@H]3O)O2)c(=O)[nH]c1=O` [TDP-glucose], which “response on agar plate” value (human KIAA0001 receptor [1]) is on record?
The value was “failed to produce a response”.

Which “response on agar plate” value (human KIAA0001 receptor [1]) does the source give for `Nc1ncnc2c1ncn2[C@@H]1O[C@H](COP(=O)(O)OP(=O)(O)O[C@H]2O[C@H](CO)[C@@H](O)[C@H](O)[C@H]2O)[C@@H](O)[C@H]1O` [ADP-glucose] here?
Its value is “failed to produce a response”.

With `O=C(O)[C@H]1O[C@H](OP(=O)(O)OP(=O)(O)OC[C@H]2O[C@@H](n3ccc(=O)[nH]c3=O)[C@H](O)[C@@H]2O)[C@H](O)[C@@H](O)[C@@H]1O` [UDP-glucuronic acid] as the molecule, how does the “response on agar plate” value (human KIAA0001 receptor [1]) read?
Its value is “positive response”.

What about the “response determined by expression of -galactosidase” value (human KIAA0001 receptor [2]) of the same molecule?
The value was “receptor-dependentresponse”.

Which “response on agar plate” value (human KIAA0001 receptor [1]) does the source give for `Nc1ncnc2c1ncn2[C@@H]1O[C@H](COP(=O)(O)OP(=O)(O)O[C@H]2O[C@H](CO)[C@@H](O)[C@H](O)[C@@H]2O)[C@@H](O)[C@H]1O` [ADP-mannose] here?
The value was “failed to produce a response”.

Which “response on agar plate” value (human KIAA0001 receptor [1]) does the source give for `Nc1nc2c(ncn2[C@@H]2O[C@H](COP(=O)(O)OP(=O)(O)O[C@H]3O[C@H](CO)[C@@H](O)[C@H](O)[C@H]3O)[C@@H](O)[C@H]2O)c(=O)[nH]1` [GDP-glucose] here?
Its value is “failed to produce a response”.

Which “response on agar plate” value (human KIAA0001 receptor [1]) does the source give for `Nc1nc2c(ncn2[C@@H]2O[C@H](COP(=O)(O)OP(=O)(O)O[C@H]3O[C@H](CO)[C@@H](O)[C@H](O)[C@@H]3O)[C@@H](O)[C@H]2O)c(=O)[nH]1` [GDP-mannose] here?
The value was “failed to produce a response”.
